Measurements as given in the supplement of paper PMC10307832.

How the values were obtained:
Test in all cases: relative viability (nuclei count vs DMSO), 5 days (fraction); higher = more cells survive
[1] = system: NCI-H1437
How it was run: (§1)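 After 5 days of treatment, lung cancer cells in 1536-well plates were fixed and stained in a single step (final 0.05% Triton X-100, 1% formaldehyde, 1 ug/ml Hoechst) and their nuclei counted on 4× images. Treatment had been applied by pin tool the day after seeding as one drug alone or as a fixed anchor-drug dose with five library-drug doses (not always all listed) in √10 steps. Relative viability is the nuclei count of treated wells divided by that of vehicle wells, and values are medians of duplicate plates.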

[2] = system: NCI-H358
How it was run: as §1

[3] = system: HCC-15
How it was run: as §1

[4] = system: NCI-H1915
How it was run: as §1

[5] = system: NCI-H2170
How it was run: as §1

[6] = system: NCI-H727
How it was run: as §1

[7] = system: NCI-H3122
How it was run: as §1

[8] = system: HCC-44
How it was run: as §1

[9] = system: SW 900
How it was run: as §1

[10] = system: LC-2-ad
How it was run: as §1

[11] = system: NCI-H1734
How it was run: as §1

[12] = system: NCI-H1395
How it was run: as §1

[13] = system: HOP-62
How it was run: as §1

[14] = system: NCI-H2126
How it was run: as §1

[15] = system: NCI-H650
How it was run: as §1

[16] = system: BEN
How it was run: as §1

[17] = system: EMC-BAC-2
How it was run: as §1

[18] = system: LU99A
How it was run: as §1

[19] = system: NCI-H1755
How it was run: as §1

CCNC(=O)c1noc(-c2cc(C(C)C)c(O)cc2O)c1-c1ccc(CN2CCOCC2)cc1 [Luminespib] + NC(=O)Nc1cc(-c2cccc(F)c2)sc1C(=O)N[C@H]1CCCNC1 [AZD7762] (partner 0.2 µM)
relative viability ([1]; first compound 0.002 µM): 1.11 | relative viability ([1]; first compound 0.006325 µM): 1.04 | relative viability ([1]; first compound 0.02 µM): 1.15 | relative viability ([1]; first compound 0.06325 µM): 0.785 | relative viability ([1]; first compound 0.2 µM): 0.278 | relative viability ([2]; first compound 0.002 µM): 0.607 | relative viability ([2]; first compound 0.006325 µM): 0.632 | relative viability ([2]; first compound 0.02 µM): 0.316 | relative viability ([2]; first compound 0.06325 µM): 0.14 | relative viability ([2]; first compound 0.2 µM): 0.134 | relative viability ([3]; first compound 0.002 µM): 1.11 | relative viability ([3]; first compound 0.006325 µM): 1.11 | relative viability ([3]; first compound 0.02 µM): 1.36 | relative viability ([3]; first compound 0.06325 µM): 1.14 | relative viability ([3]; first compound 0.2 µM): 0.247 | relative viability ([4]; first compound 0.002 µM): 0.662 | relative viability ([4]; first compound 0.006325 µM): 0.674 | relative viability ([4]; first compound 0.02 µM): 0.627 | relative viability ([4]; first compound 0.06325 µM): 0.473 | relative viability ([4]; first compound 0.2 µM): 0.0604 | relative viability ([5]; first compound 0.002 µM): 0.868 | relative viability ([5]; first compound 0.006325 µM): 0.851 | relative viability ([5]; first compound 0.06325 µM): 0.118 | relative viability ([5]; first compound 0.2 µM): 0.104 | relative viability ([6]; first compound 0.002 µM): 0.53 | relative viability ([6]; first compound 0.006325 µM): 0.493 | relative viability ([6]; first compound 0.02 µM): 0.57 | relative viability ([6]; first compound 0.06325 µM): 0.36 | relative viability ([6]; first compound 0.2 µM): 0.323 | relative viability ([7]; first compound 0.002 µM): 0.948 | relative viability ([7]; first compound 0.006325 µM): 0.942 | relative viability ([7]; first compound 0.02 µM): 0.626 | relative viability ([7]; first compound 0.06325 µM): 0.109 | relative viability ([7]; first compound 0.2 µM): 0.0654 | relative viability ([8]; first compound 0.002 µM): 1.04 | relative viability ([8]; first compound 0.006325 µM): 0.995 | relative viability ([8]; first compound 0.02 µM): 1.15 | relative viability ([8]; first compound 0.06325 µM): 1.07 | relative viability ([8]; first compound 0.2 µM): 0.959 | relative viability ([9]; first compound 0.002 µM): 0.667 | relative viability ([9]; first compound 0.006325 µM): 0.752 | relative viability ([9]; first compound 0.02 µM): 0.396 | relative viability ([9]; first compound 0.06325 µM): 0.129 | relative viability ([9]; first compound 0.2 µM): 0.13 | relative viability ([10]; first compound 0.002 µM): 0.802 | relative viability ([10]; first compound 0.006325 µM): 0.854 | relative viability ([10]; first compound 0.02 µM): 0.833 | relative viability ([10]; first compound 0.06325 µM): 0.146 | relative viability ([10]; first compound 0.2 µM): 0.16 | relative viability ([11]; first compound 0.002 µM): 0.516 | relative viability ([11]; first compound 0.006325 µM): 0.497 | relative viability ([11]; first compound 0.02 µM): 0.28 | relative viability ([11]; first compound 0.06325 µM): 0.0991 | relative viability ([11]; first compound 0.2 µM): 0.124 | relative viability ([12]; first compound 0.002 µM): 0.399 | relative viability ([12]; first compound 0.006325 µM): 0.372 | relative viability ([12]; first compound 0.02 µM): 0.374 | relative viability ([12]; first compound 0.06325 µM): 0.343 | relative viability ([12]; first compound 0.2 µM): 0.384 | relative viability ([13]; first compound 0.002 µM): 0.437 | relative viability ([13]; first compound 0.006325 µM): 0.463 | relative viability ([13]; first compound 0.02 µM): 0.306 | relative viability ([13]; first compound 0.06325 µM): 0.129 | relative viability ([13]; first compound 0.2 µM): 0.109 | relative viability ([14]; first compound 0.002 µM): 0.984 | relative viability ([14]; first compound 0.006325 µM): 1.01 | relative viability ([14]; first compound 0.06325 µM): 0.846 | relative viability ([14]; first compound 0.2 µM): 0.296 | relative viability ([15]; first compound 0.002 µM): 0.93 | relative viability ([15]; first compound 0.006325 µM): 0.958 | relative viability ([15]; first compound 0.02 µM): 0.587 | relative viability ([15]; first compound 0.06325 µM): 0.139 | relative viability ([15]; first compound 0.2 µM): 0.0919 | relative viability ([16]; first compound 0.002 µM): 0.687 | relative viability ([16]; first compound 0.006325 µM): 0.669 | relative viability ([16]; first compound 0.02 µM): 0.405 | relative viability ([16]; first compound 0.06325 µM): 0.516 | relative viability ([16]; first compound 0.2 µM): 0.272 | relative viability ([17]; first compound 0.002 µM): 1.12 | relative viability ([17]; first compound 0.006325 µM): 0.655 | relative viability ([17]; first compound 0.02 µM): 0.689 | relative viability ([17]; first compound 0.06325 µM): 0.769 | relative viability ([17]; first compound 0.2 µM): 0.226 | relative viability ([18]; first compound 0.002 µM): 0.378 | relative viability ([18]; first compound 0.006325 µM): 0.347 | relative viability ([18]; first compound 0.02 µM): 0.214 | relative viability ([18]; first compound 0.06325 µM): 0.0724 | relative viability ([18]; first compound 0.2 µM): 0.0654 | relative viability ([19]; first compound 0.002 µM): 0.429 | relative viability ([19]; first compound 0.006325 µM): 0.355 | relative viability ([19]; first compound 0.02 µM): 0.352 | relative viability ([19]; first compound 0.06325 µM): 0.245 | relative viability ([19]; first compound 0.2 µM): 0.161
